Test results: US9695155B2, “Herbicidal substituted pyrimidinyloxy benzene compounds” (E. I. DU PONT DE NEMOURS AND COMPANY, priority 2013, dated 2017)

Experiments:
[1] = system: Italian ryegrass; assay: Test D preemergence; assay type: in vivo, Lolium multiflorum; conditions: Lolium multiflorum, pre-emergence
In short: (§1)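 After treatment, visual injury versus untreated plants, 0–100 scale, assessed at 7 to 21 days. Applications were made preemergence to silt loam-sown seed and postemergence to seedlings 2–18 cm high in potting medium.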

[2] = system: kochia; assay: Test D preemergence; assay type: in vivo, Kochia scoparia; conditions: Bassia scoparia, pre-emergence
In short: as §1

[3] = system: Italian ryegrass; assay: Test D postemergence; assay type: in vivo, Lolium multiflorum; conditions: Lolium multiflorum, post-emergence
In short: as §1

[4] = system: bluegrass; assay: Test D preemergence; assay type: in vivo, Poa annua; conditions: Poa annua, pre-emergence
In short: as §1

[5] = system: oilseed rape; assay: Test D postemergence; assay type: in vivo, Brassica napus; conditions: Brassica napus, post-emergence
In short: as §1

[6] = system: deadnettle; assay: Test D postemergence; assay type: in vivo, Lamium amplexicaule; conditions: Lamium amplexicaule, post-emergence
In short: as §1

[7] = system: chamomile; assay: Test D postemergence; assay type: in vivo, Matricaria inodora; conditions: Tripleurospermum inodorum, post-emergence
In short: as §1

[8] = system: wild buckwheat; assay: Test D postemergence; assay type: in vivo, Polygonum convolvulus; conditions: Fallopia convolvulus, post-emergence, Postemergence, scale 0 to 100 (0 no effect, 100 complete control), read-out: Plant response rating, Buckwheat, Wild
In short: as §1

[9] = system: canarygrass; assay: Test D postemergence; assay type: in vivo, Phalaris minor; conditions: Phalaris minor, post-emergence
In short: as §1

[10] = system: blackgrass; assay: Test D preemergence; assay type: in vivo, Alopecurus myosuroides; conditions: Alopecurus myosuroides, pre-emergence
In short: as §1

[11] = system: galium; assay: Test D postemergence; assay type: in vivo, Galium aparine; conditions: Galium, post-emergence
In short: as §1

[12] = system: field violet; assay: Test D preemergence; assay type: in vivo, Viola arvensis; conditions: Viola arvensis, pre-emergence
In short: as §1

FC(F)(F)c1cnn(-c2ccccc2Oc2ncc(Br)cn2)c1 [Compound 18, 5-bromo-2-[2-[4-(trifluoromethyl)-1H-pyrazol-1-yl]phenoxy]pyrimidine]
5%: pest or weed control at 16 g/ha ([3]; 16 g ai/ha, scale 0-100, read-out: Plant response rating, Ryegrass, Italian) | pest or weed control at 31 g/ha ([3]; 31 g ai/ha, scale 0 to 100 (0 no effect, 100 complete control), read-out: Plant response rating, Ryegrass, Italian) | pest or weed control at 62 g/ha ([3]; 62 g ai/ha, scale 0 to 100 (0 no effect, 100 complete control), read-out: Plant response rating, Ryegrass, Italian) | pest or weed control at 16 g/ha ([7]; 16 g ai/ha, scale 0-100, read-out: Plant response rating, Chamomile) | pest or weed control at 62 g/ha ([7]; 62 g ai/ha, scale 0 to 100 (0 no effect, 100 complete control), read-out: Plant response rating, Chamomile) | pest or weed control at 31 g/ha ([10]; 31 g ai/ha, scale 0-100, read-out: Plant response rating, Blackgrass)
50%: pest or weed control at 250 g/ha ([1]; 250 g ai/ha, scale 0-100, read-out: Plant response rating, Ryegrass, Italian) | pest or weed control at 16 g/ha ([6]; 16 g ai/ha, scale 0-100, read-out: Plant response rating, Deadnettle) | pest or weed control at 62 g/ha ([10]; 62 g ai/ha, scale 0-100, read-out: Plant response rating, Blackgrass)
30%: pest or weed control at 31 g/ha ([4]; 31 g ai/ha, scale 0-100, read-out: Plant response rating, Bluegrass)
90%: pest or weed control at 31 g/ha ([2]; 31 g ai/ha, scale 0-100, read-out: Plant response rating, Kochia) | pest or weed control at 125 g/ha ([6]; 125 g ai/ha, scale 0 to 100 (0 no effect, 100 complete control), read-out: Plant response rating, Deadnettle) | pest or weed control at 250 g/ha ([12]; 250 g ai/ha, scale 0-100, read-out: Plant response rating, Field Violet)
85%: pest or weed control at 62 g/ha ([12]; 62 g ai/ha, scale 0-100, read-out: Plant response rating, Field Violet) | pest or weed control at 125 g/ha ([12]; 125 g ai/ha, scale 0-100, read-out: Plant response rating, Field Violet)
55%: pest or weed control at 31 g/ha ([8]; 31 g ai/ha)
60%: pest or weed control at 16 g/ha ([8]; 16 g ai/ha) | pest or weed control at 31 g/ha ([11]; 31 g ai/ha, scale 0 to 100 (0 no effect, 100 complete control), read-out: Plant response rating, Galium)
95%: pest or weed control at 250 g/ha ([8]; 250 g ai/ha)
15%: pest or weed control at 16 g/ha ([2]; 16 g ai/ha, scale 0 (no effect) to 100 (complete control), read-out: Plant response rating, Kochia) | pest or weed control at 250 g/ha ([3]; 250 g ai/ha, scale 0 to 100 (0 no effect, 100 complete control), read-out: Plant response rating, Ryegrass, Italian) | pest or weed control at 31 g/ha ([9]; 31 g ai/ha, scale 0 to 100 (0 no effect, 100 complete control), read-out: Plant response rating, Canarygrass) | pest or weed control at 62 g/ha ([9]; 62 g ai/ha, scale 0 to 100 (0 no effect, 100 complete control), read-out: Plant response rating, Canarygrass)
10%: pest or weed control at 16 g/ha ([1]; 16 g ai/ha, scale 0 (no effect) to 100 (complete control), read-out: Plant response rating, Ryegrass, Italian) | pest or weed control at 31 g/ha ([1]; 31 g ai/ha, scale 0 (no effect) to 100 (complete control), read-out: Plant response rating, Ryegrass, Italian) | pest or weed control at 125 g/ha ([3]; 125 g ai/ha, scale 0 to 100 (0 no effect, 100 complete control), read-out: Plant response rating, Ryegrass, Italian) | pest or weed control at 16 g/ha ([4]; 16 g ai/ha, scale 0 (no effect) to 100 (complete control), read-out: Plant response rating, Bluegrass) | pest or weed control at 31 g/ha ([7]; 31 g ai/ha, scale 0 to 100 (0 no effect, 100 complete control), read-out: Plant response rating, Chamomile) | pest or weed control at 125 g/ha ([7]; 125 g ai/ha, scale 0 to 100 (0 no effect, 100 complete control), read-out: Plant response rating, Chamomile) | pest or weed control at 250 g/ha ([7]; 250 g ai/ha, scale 0 to 100 (0 no effect, 100 complete control), read-out: Plant response rating, Chamomile) | pest or weed control at 16 g/ha ([9]; 16 g ai/ha, scale 0-100, read-out: Plant response rating, Canarygrass)
25%: pest or weed control at 125 g/ha ([1]; 125 g ai/ha, scale 0-100, read-out: Plant response rating, Ryegrass, Italian)
20%: pest or weed control at 62 g/ha ([1]; 62 g ai/ha, scale 0-100, read-out: Plant response rating, Ryegrass, Italian) | pest or weed control at 125 g/ha ([9]; 125 g ai/ha, scale 0 to 100 (0 no effect, 100 complete control), read-out: Plant response rating, Canarygrass)
65%: pest or weed control at 31 g/ha ([6]; 31 g ai/ha, scale 0 to 100 (0 no effect, 100 complete control), read-out: Plant response rating, Deadnettle) | pest or weed control at 125 g/ha ([11]; 125 g ai/ha, scale 0 to 100 (0 no effect, 100 complete control), read-out: Plant response rating, Galium) | pest or weed control at 16 g/ha ([12]; 16 g ai/ha, scale 0 (no effect) to 100 (complete control), read-out: Plant response rating, Field Violet)
100%: pest or weed control at 125 g/ha ([2]; 125 g ai/ha, scale 0-100, read-out: Plant response rating, Kochia) | pest or weed control at 250 g/ha ([2]; 250 g ai/ha, scale 0-100, read-out: Plant response rating, Kochia) | pest or weed control at 125 g/ha ([4]; 125 g ai/ha, scale 0-100, read-out: Plant response rating, Bluegrass) | pest or weed control at 250 g/ha ([4]; 250 g ai/ha, scale 0-100, read-out: Plant response rating, Bluegrass) | plant injury at 62 g/ha ([5]; 62 g ai/ha, scale 0 to 100 (0 no effect, 100 complete control), read-out: Plant response rating, Oilseed Rape) | plant injury at 125 g/ha ([5]; 125 g ai/ha, scale 0 to 100 (0 no effect, 100 complete control), read-out: Plant response rating, Oilseed Rape) | plant injury at 250 g/ha ([5]; 250 g ai/ha, scale 0 to 100 (0 no effect, 100 complete control), read-out: Plant response rating, Oilseed Rape) | pest or weed control at 250 g/ha ([6]; 250 g ai/ha, scale 0 to 100 (0 no effect, 100 complete control), read-out: Plant response rating, Deadnettle) | pest or weed control at 125 g/ha ([8]; 125 g ai/ha) | pest or weed control at 125 g/ha ([10]; 125 g ai/ha, scale 0-100, read-out: Plant response rating, Blackgrass) | pest or weed control at 250 g/ha ([10]; 250 g ai/ha, scale 0-100, read-out: Plant response rating, Blackgrass)
0%: pest or weed control at 16 g/ha ([10]; 16 g ai/ha, scale 0 (no effect) to 100 (complete control), read-out: Plant response rating, Blackgrass)
35%: plant injury at 16 g/ha ([5]; 16 g ai/ha, scale 0-100, read-out: Plant response rating, Oilseed Rape) | pest or weed control at 250 g/ha ([9]; 250 g ai/ha, scale 0 to 100 (0 no effect, 100 complete control), read-out: Plant response rating, Canarygrass)
40%: pest or weed control at 16 g/ha ([11]; 16 g ai/ha, scale 0-100, read-out: Plant response rating, Galium)
70%: pest or weed control at 62 g/ha ([4]; 62 g ai/ha, scale 0-100, read-out: Plant response rating, Bluegrass) | plant injury at 31 g/ha ([5]; 31 g ai/ha, scale 0 to 100 (0 no effect, 100 complete control), read-out: Plant response rating, Oilseed Rape) | pest or weed control at 62 g/ha ([8]; 62 g ai/ha) | pest or weed control at 62 g/ha ([11]; 62 g ai/ha, scale 0 to 100 (0 no effect, 100 complete control), read-out: Plant response rating, Galium) | pest or weed control at 250 g/ha ([11]; 250 g ai/ha, scale 0 to 100 (0 no effect, 100 complete control), read-out: Plant response rating, Galium) | pest or weed control at 31 g/ha ([12]; 31 g ai/ha, scale 0-100, read-out: Plant response rating, Field Violet)
75%: pest or weed control at 62 g/ha ([2]; 62 g ai/ha, scale 0-100, read-out: Plant response rating, Kochia) | pest or weed control at 62 g/ha ([6]; 62 g ai/ha, scale 0 to 100 (0 no effect, 100 complete control), read-out: Plant response rating, Deadnettle)
